# Measured values as given in ChEMBL document CHEMBL1909046, “DrugMatrix in vitro pharmacology data”.
# Tested on: not listed separately
# Assay: DRUGMATRIX: Atrial Natriuretic Factor (ANF) radioligand binding (ligand: [125I] ANF (rat))
# Format: cell membranes, Cavia porcellus, Dunkin-Hartley, Adrenal gland, Membrane
# Details: Not Active = under 50% inhibition at 10 µM
Structure (SMILES),IC50,Ki
CC1(C)O[C@@H]2C[C@H]3[C@@H]4CCC5=CC(=O)CC[C@]5(C)[C@@]4(F)[C@@H](O)C[C@]3(C)[C@]2(C(=O)CCl)O1 [HALCINONIDE],Not Active,Not Active
NC(=O)N1c2ccccc2CCc2ccccc21,Not Active,Not Active
CC(C)C(Br)C(=O)NC(N)=O (stereo not drawn) [BROMISOVALUM],Not Active,Not Active
COc1ccc(C[C@H]2NC[C@H](O)[C@H]2OC(C)=O)cc1 [ANISOMYCIN],Not Active,Not Active
C[C@]12CCC(=O)C=C1CC[C@@H]1[C@@H]2CC[C@@]2(C)[C@H]1CC[C@]2(C)O [METHYLTESTOSTERONE],Not Active,Not Active
O=C1CC[C@@H](N2C(=O)c3ccccc3C2=O)C(=O)N1,Not Active,Not Active
C[C@]12CC[C@@H]3c4ccc(O)cc4CC[C@H]3[C@@H]1CCC2=O [ESTRONE],Not Active,Not Active
CCCN1C[C@H](CSC)C[C@@H]2c3cccc4[nH]cc(c34)C[C@H]21 [PERGOLIDE],Not Active,Not Active
CN(C)CCCN1c2ccccc2Sc2ccc(Cl)cc21 [CHLORPROMAZINE],Not Active,Not Active
COc1cc2nc(N3CCN(C(=O)C4COc5ccccc5O4)CC3)nc(N)c2cc1OC (stereo not drawn) [DOXAZOSIN],Not Active,Not Active

# Tested on: not listed separately
# Assay: DRUGMATRIX: Calcium Channel Type L, Benzothiazepine radioligand binding (ligand: [3H] Diltiazem)
# Format: cell membranes, Rattus norvegicus, Wistar, Brain, Membrane
# Details: Not Active = under 50% inhibition at 10 µM
Structure (SMILES),IC50,Ki
CC1(C)O[C@@H]2C[C@H]3[C@@H]4CCC5=CC(=O)CC[C@]5(C)[C@@]4(F)[C@@H](O)C[C@]3(C)[C@]2(C(=O)CCl)O1 [HALCINONIDE],Not Active,Not Active
NC(=O)N1c2ccccc2CCc2ccccc21,Not Active,Not Active
CC(C)C(Br)C(=O)NC(N)=O (stereo not drawn) [BROMISOVALUM],Not Active,Not Active
COc1ccc(C[C@H]2NC[C@H](O)[C@H]2OC(C)=O)cc1 [ANISOMYCIN],Not Active,Not Active
C[C@]12CCC(=O)C=C1CC[C@@H]1[C@@H]2CC[C@@]2(C)[C@H]1CC[C@]2(C)O [METHYLTESTOSTERONE],Not Active,Not Active
O=C1CC[C@@H](N2C(=O)c3ccccc3C2=O)C(=O)N1,Not Active,Not Active
C[C@]12CC[C@@H]3c4ccc(O)cc4CC[C@H]3[C@@H]1CCC2=O [ESTRONE],Not Active,Not Active
COc1cc2nc(N3CCN(C(=O)C4COc5ccccc5O4)CC3)nc(N)c2cc1OC (stereo not drawn) [DOXAZOSIN],Not Active,Not Active

# Same assay, conditions: Not Active = under 50% inhibition at 10 µM; read-out: IC50
row,Structure (SMILES),IC50 [nM]
1,CCCN1C[C@H](CSC)C[C@@H]2c3cccc4[nH]cc(c34)C[C@H]21 [PERGOLIDE],3300
2,CN(C)CCCN1c2ccccc2Sc2ccc(Cl)cc21 [CHLORPROMAZINE],3210

# Same assay, conditions: Not Active = under 50% inhibition at 10 µM; read-out: Ki
row,Structure (SMILES),Ki [nM]
1,CCCN1C[C@H](CSC)C[C@@H]2c3cccc4[nH]cc(c34)C[C@H]21 [PERGOLIDE],2930
2,CN(C)CCCN1c2ccccc2Sc2ccc(Cl)cc21 [CHLORPROMAZINE],2860

# Molecular target: Mitogen-activated protein kinase 3 (Homo sapiens, UniProt P27361)
# Assay: DRUGMATRIX: Protein Serine/Threonine Kinase, ERK1 enzyme inhibition (substrate: Myelin Basic Protein)
# Design: species or system Escherichia coli
# Details: Not Active = under 50% inhibition at 10 µM
# Mitogen-activated protein kinase 3, sequence (P27361 whole entry): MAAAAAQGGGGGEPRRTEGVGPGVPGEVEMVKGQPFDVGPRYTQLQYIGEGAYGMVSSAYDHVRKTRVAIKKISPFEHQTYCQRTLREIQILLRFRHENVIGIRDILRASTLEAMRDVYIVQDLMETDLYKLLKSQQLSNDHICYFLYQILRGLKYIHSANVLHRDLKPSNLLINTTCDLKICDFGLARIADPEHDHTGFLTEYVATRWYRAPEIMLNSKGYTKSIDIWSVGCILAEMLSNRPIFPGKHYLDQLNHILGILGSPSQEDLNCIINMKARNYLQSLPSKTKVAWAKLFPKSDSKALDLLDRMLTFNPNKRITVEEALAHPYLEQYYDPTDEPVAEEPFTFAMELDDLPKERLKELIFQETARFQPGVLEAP
Structure (SMILES),IC50,Ki
CC1(C)O[C@@H]2C[C@H]3[C@@H]4CCC5=CC(=O)CC[C@]5(C)[C@@]4(F)[C@@H](O)C[C@]3(C)[C@]2(C(=O)CCl)O1 [HALCINONIDE],Not Active,–
NC(=O)N1c2ccccc2CCc2ccccc21,Not Active,–
CC(C)C(Br)C(=O)NC(N)=O (stereo not drawn) [BROMISOVALUM],Not Active,–
COc1ccc(C[C@H]2NC[C@H](O)[C@H]2OC(C)=O)cc1 [ANISOMYCIN],Not Active,Not Active
C[C@]12CCC(=O)C=C1CC[C@@H]1[C@@H]2CC[C@@]2(C)[C@H]1CC[C@]2(C)O [METHYLTESTOSTERONE],Not Active,–
O=C1CC[C@@H](N2C(=O)c3ccccc3C2=O)C(=O)N1,Not Active,–
C[C@]12CC[C@@H]3c4ccc(O)cc4CC[C@H]3[C@@H]1CCC2=O [ESTRONE],Not Active,–
CCCN1C[C@H](CSC)C[C@@H]2c3cccc4[nH]cc(c34)C[C@H]21 [PERGOLIDE],Not Active,–
CN(C)CCCN1c2ccccc2Sc2ccc(Cl)cc21 [CHLORPROMAZINE],Not Active,–
COc1cc2nc(N3CCN(C(=O)C4COc5ccccc5O4)CC3)nc(N)c2cc1OC (stereo not drawn) [DOXAZOSIN],Not Active,–

# Molecular target: T1, Alpha-1D adrenergic receptor (Homo sapiens, UniProt P25100); note: in other assays of this panel Not Active means under 50% inhibition at 10 µM
# T1 sequence (P25100 whole entry): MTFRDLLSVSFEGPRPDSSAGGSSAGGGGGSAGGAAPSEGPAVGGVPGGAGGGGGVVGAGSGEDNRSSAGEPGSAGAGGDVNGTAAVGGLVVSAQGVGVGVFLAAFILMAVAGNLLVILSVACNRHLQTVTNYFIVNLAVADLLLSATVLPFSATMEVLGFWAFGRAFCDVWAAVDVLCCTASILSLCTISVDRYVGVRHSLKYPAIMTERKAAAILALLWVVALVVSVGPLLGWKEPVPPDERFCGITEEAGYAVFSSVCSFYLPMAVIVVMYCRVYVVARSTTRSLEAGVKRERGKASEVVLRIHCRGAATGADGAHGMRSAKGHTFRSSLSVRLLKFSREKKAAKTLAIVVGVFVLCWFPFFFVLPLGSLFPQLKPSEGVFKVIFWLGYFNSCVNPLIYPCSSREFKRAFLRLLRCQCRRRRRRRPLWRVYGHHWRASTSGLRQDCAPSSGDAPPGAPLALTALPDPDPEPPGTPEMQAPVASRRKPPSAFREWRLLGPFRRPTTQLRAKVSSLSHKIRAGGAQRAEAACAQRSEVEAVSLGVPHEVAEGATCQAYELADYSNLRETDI
# Format: cell membranes, HEK293, Membrane
# Details: hek293
Structure (SMILES),IC50,Ki
CC1(C)O[C@@H]2C[C@H]3[C@@H]4CCC5=CC(=O)CC[C@]5(C)[C@@]4(F)[C@@H](O)C[C@]3(C)[C@]2(C(=O)CCl)O1 [HALCINONIDE],Not Active,–
NC(=O)N1c2ccccc2CCc2ccccc21,Not Active,–
CC(C)C(Br)C(=O)NC(N)=O (stereo not drawn) [BROMISOVALUM],Not Active,–
COc1ccc(C[C@H]2NC[C@H](O)[C@H]2OC(C)=O)cc1 [ANISOMYCIN],Not Active,Not Active
C[C@]12CCC(=O)C=C1CC[C@@H]1[C@@H]2CC[C@@]2(C)[C@H]1CC[C@]2(C)O [METHYLTESTOSTERONE],Not Active,–
O=C1CC[C@@H](N2C(=O)c3ccccc3C2=O)C(=O)N1,Not Active,–
C[C@]12CC[C@@H]3c4ccc(O)cc4CC[C@H]3[C@@H]1CCC2=O [ESTRONE],Not Active,–

# Molecular target: 5-hydroxytryptamine receptor 2B (Homo sapiens, UniProt P41595); note: in other assays of this panel Not Active means under 50% inhibition at 10 µM
# Format: cell membranes, CHO-K1, Membrane
# Details: cho-k1
# 5-hydroxytryptamine receptor 2B, sequence (P41595 whole entry): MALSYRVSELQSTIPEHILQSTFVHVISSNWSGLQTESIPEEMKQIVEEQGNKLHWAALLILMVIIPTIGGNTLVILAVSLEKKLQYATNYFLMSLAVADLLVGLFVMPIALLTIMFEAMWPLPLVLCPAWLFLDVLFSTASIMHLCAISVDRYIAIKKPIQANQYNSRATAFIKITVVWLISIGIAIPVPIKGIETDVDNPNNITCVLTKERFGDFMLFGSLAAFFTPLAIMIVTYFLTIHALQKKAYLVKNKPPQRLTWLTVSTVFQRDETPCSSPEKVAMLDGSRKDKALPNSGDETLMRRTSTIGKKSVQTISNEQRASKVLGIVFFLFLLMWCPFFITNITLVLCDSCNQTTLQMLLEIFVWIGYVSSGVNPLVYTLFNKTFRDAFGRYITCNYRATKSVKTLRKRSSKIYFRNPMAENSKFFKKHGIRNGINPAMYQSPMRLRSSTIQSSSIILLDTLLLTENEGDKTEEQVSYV
Structure (SMILES),IC50,Ki
CC1(C)O[C@@H]2C[C@H]3[C@@H]4CCC5=CC(=O)CC[C@]5(C)[C@@]4(F)[C@@H](O)C[C@]3(C)[C@]2(C(=O)CCl)O1 [HALCINONIDE],Not Active,–
NC(=O)N1c2ccccc2CCc2ccccc21,Not Active,–
CC(C)C(Br)C(=O)NC(N)=O (stereo not drawn) [BROMISOVALUM],Not Active,–
COc1ccc(C[C@H]2NC[C@H](O)[C@H]2OC(C)=O)cc1 [ANISOMYCIN],Not Active,Not Active
C[C@]12CCC(=O)C=C1CC[C@@H]1[C@@H]2CC[C@@]2(C)[C@H]1CC[C@]2(C)O [METHYLTESTOSTERONE],Not Active,–
O=C1CC[C@@H](N2C(=O)c3ccccc3C2=O)C(=O)N1,Not Active,–

# Same assay, conditions: read-out: IC50
row,Structure (SMILES),IC50 [nM]
1,CCCN1C[C@H](CSC)C[C@@H]2c3cccc4[nH]cc(c34)C[C@H]21 [PERGOLIDE],76

# Same assay, conditions: read-out: Ki
row,Structure (SMILES),Ki [nM]
1,CCCN1C[C@H](CSC)C[C@@H]2c3cccc4[nH]cc(c34)C[C@H]21 [PERGOLIDE],49

# Molecular target: Melanocortin receptor 4 (Homo sapiens, UniProt P32245); note: in other assays of this panel Not Active means under 50% inhibition at 10 µM
# Format: cell membranes, HEK293, Membrane
# Details: hek293
# Melanocortin receptor 4, sequence (P32245 whole entry): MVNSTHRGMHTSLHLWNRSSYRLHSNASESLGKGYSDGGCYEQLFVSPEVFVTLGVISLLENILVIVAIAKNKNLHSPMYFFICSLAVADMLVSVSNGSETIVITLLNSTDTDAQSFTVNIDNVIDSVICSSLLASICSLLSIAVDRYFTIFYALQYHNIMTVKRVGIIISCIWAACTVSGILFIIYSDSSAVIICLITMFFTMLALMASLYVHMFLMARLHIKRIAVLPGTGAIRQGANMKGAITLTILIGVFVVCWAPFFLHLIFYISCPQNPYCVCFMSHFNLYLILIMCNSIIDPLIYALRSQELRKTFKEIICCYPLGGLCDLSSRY
Structure (SMILES),IC50,Ki
CC1(C)O[C@@H]2C[C@H]3[C@@H]4CCC5=CC(=O)CC[C@]5(C)[C@@]4(F)[C@@H](O)C[C@]3(C)[C@]2(C(=O)CCl)O1 [HALCINONIDE],Not Active,–
NC(=O)N1c2ccccc2CCc2ccccc21,Not Active,–
CC(C)C(Br)C(=O)NC(N)=O (stereo not drawn) [BROMISOVALUM],Not Active,–
COc1ccc(C[C@H]2NC[C@H](O)[C@H]2OC(C)=O)cc1 [ANISOMYCIN],Not Active,Not Active
C[C@]12CCC(=O)C=C1CC[C@@H]1[C@@H]2CC[C@@]2(C)[C@H]1CC[C@]2(C)O [METHYLTESTOSTERONE],Not Active,–
O=C1CC[C@@H](N2C(=O)c3ccccc3C2=O)C(=O)N1,Not Active,–
C[C@]12CC[C@@H]3c4ccc(O)cc4CC[C@H]3[C@@H]1CCC2=O [ESTRONE],Not Active,–
CCCN1C[C@H](CSC)C[C@@H]2c3cccc4[nH]cc(c34)C[C@H]21 [PERGOLIDE],Not Active,–
COc1cc2nc(N3CCN(C(=O)C4COc5ccccc5O4)CC3)nc(N)c2cc1OC (stereo not drawn) [DOXAZOSIN],Not Active,–

# Tested on: not listed separately
# Assay: DRUGMATRIX: Sodium/nucleoside co-transporter radioligand binding (ligand: nitrobenzylthioinosine)
# Format: cell membranes, Cavia porcellus, Dunkin-Hartley, Cerebral cortex, Membrane
# Details: Not Active = under 50% inhibition at 10 µM
Structure (SMILES),IC50,Ki
CC1(C)O[C@@H]2C[C@H]3[C@@H]4CCC5=CC(=O)CC[C@]5(C)[C@@]4(F)[C@@H](O)C[C@]3(C)[C@]2(C(=O)CCl)O1 [HALCINONIDE],Not Active,Not Active
NC(=O)N1c2ccccc2CCc2ccccc21,Not Active,Not Active
CC(C)C(Br)C(=O)NC(N)=O (stereo not drawn) [BROMISOVALUM],Not Active,Not Active
COc1ccc(C[C@H]2NC[C@H](O)[C@H]2OC(C)=O)cc1 [ANISOMYCIN],Not Active,Not Active
C[C@]12CCC(=O)C=C1CC[C@@H]1[C@@H]2CC[C@@]2(C)[C@H]1CC[C@]2(C)O [METHYLTESTOSTERONE],Not Active,Not Active
O=C1CC[C@@H](N2C(=O)c3ccccc3C2=O)C(=O)N1,Not Active,Not Active
C[C@]12CC[C@@H]3c4ccc(O)cc4CC[C@H]3[C@@H]1CCC2=O [ESTRONE],Not Active,Not Active
CCCN1C[C@H](CSC)C[C@@H]2c3cccc4[nH]cc(c34)C[C@H]21 [PERGOLIDE],Not Active,Not Active
CN(C)CCCN1c2ccccc2Sc2ccc(Cl)cc21 [CHLORPROMAZINE],Not Active,Not Active
COc1cc2nc(N3CCN(C(=O)C4COc5ccccc5O4)CC3)nc(N)c2cc1OC (stereo not drawn) [DOXAZOSIN],Not Active,Not Active
